The values below come from ChEMBL document CHEMBL3102853, “Carbonic anhydrase inhibitors. Synthesis, and molecular structure of novel series N-substituted N'-(2-arylmethylthio-4-chloro-5-methylbenzenesulfonyl)guanidines and their inhibition of human cytosolic isozymes I and II and the transmembrane tumor-associated isozymes IX and XII” (Eur J Med Chem, 2014).

Holding throughout (format): functional
The test system of test [1] is A549. Put plainly: Cytotoxicity against human A549 cells at 10 uM.
Test [2] has as its system DU-145. Put plainly: Cytotoxicity against human DU145 cells at 10 uM.
The subject of test [3] is HL-60(TB). In words: Cytotoxicity against human HL-60(TB) cells at 10 uM. The following applies: read-out: GI.
Test [4] deals with SNB-75. In words: Cytotoxicity against human SNB75 cells at 10 uM. The settings on record: read-out: GI.
The subject of test [5] is SW-620. In words: Cytotoxicity against human SW620 cells at 10 uM.
In test [6] the test system is SR. In words: Cytotoxicity against human SR cells at 10 uM.
Test [7] relates to T47D. In words: Cytotoxicity against human T47D cells at 10 uM. The settings on record: read-out: GI.
For test [8], the system named is UACC-62. Put plainly: Cytotoxicity against human UACC62 cells at 10 uM.
For test [9], the system named is K562. In words: Cytotoxicity against human K562 cells at 10 uM. The settings on record: read-out: GI.
The test system of test [10] is HOP-92. Put plainly: Cytotoxicity against human HOP92 cells at 10 uM. The settings on record: read-out: GI.
Test [11] deals with OVCAR-3. Put plainly: Cytotoxicity against human OVCAR3 cells at 10 uM.
In test [12] the test system is NCI-H460. Put plainly: Cytotoxicity against human NCI-H460 cells at 10 uM.
Test [13] concerns KM12. In words: Cytotoxicity against human KM12 cells at 10 uM.
Test [14] relates to MDA-MB-468. Put plainly: Cytotoxicity against human MDA-MB-468 cells at 10 uM. The settings on record: read-out: GI.
The subject of test [15] is NCI/ADR-RES. In words: (§1) Cytotoxicity against human NCI-ADR-RES cells at 10 uM.
The subject of test [16] is RPMI-8226. Put plainly: Cytotoxicity against human RPMI8226 cells at 10 uM.
The subject of test [17] is A498. In words: Cytotoxicity against human A498 cells at 10 uM.
Test [18] deals with HT-29. In words: Cytotoxicity against human HT-29 cells at 10 uM.
Test [19] has as its system LOX IMVI. Put plainly: Cytotoxicity against human LOXIMVI cells at 10 uM. The following applies: read-out: GI.
Test [20] has as its system Hs-578T. Put plainly: (§2) Cytotoxicity against human Hs 578T cells at 10 uM.
Test [21] has as its system SK-MEL-2. Put plainly: Cytotoxicity against human SK-MEL-2 cells at 10 uM.
Test [22] has as its system MOLT-4. Put plainly: Cytotoxicity against human MOLT4 cells at 10 uM. The following applies: read-out: GI.
Test [23] concerns PC-3. Put plainly: Cytotoxicity against human PC3 cells at 10 uM. The settings on record: read-out: GI.
Test [24] deals with SF-268. Put plainly: Cytotoxicity against human SF268 cells at 10 uM.
Test [25] concerns MCF7. Put plainly: Cytotoxicity against human MCF7 cells at 10 uM. The following applies: read-out: GI.
The nature of test [26]: as §1. The following applies: read-out: GI.
Test [27] in a line: as §2. The following applies: read-out: GI.

Active and inactive are the calls of the source. No cut-off for these calls is given here.

For the compound `Cc1cc(S(=O)(=O)NC(=N)Nc2nnc(S(N)(=O)=O)s2)c(SCc2ccccc2)cc1Cl`, the “growth inhibition (GI)” value in test [1], in test [2], in test [5], in [6], in test [8] and in [11] was “inactive” each time. Moreover, the “growth inhibition (GI)” value in test [12], in test [13], in test [15], in test [16], in test [17] and in test [18] was “inactive” in each case. Besides, the “growth inhibition (GI)” value in [20], in [21] and in test [24] was “inactive” in each case. The inhibition of growth at 10 µM amounted to 15% in [3]; 18% in [4]; 6% in test [7]; 2% in test [9]; 1% in test [10]; 11% in [14]. The inhibition of growth at 10 µM is 4% in test [19], 14% in test [22], 3% in test [23] and 11% in test [25].

For the compound `Cc1cc(S(=O)(=O)NC(=N)Nc2ccc(S(N)(=O)=O)cc2)c(SCc2cc3c(cc2Cl)OCO3)cc1Cl`, the inhibition of growth at 10 µM worked out at 4% in test [1] (read-out: GI); 22% in [4]; 25% in [6] (read-out: GI); 23% in [7]; 17% in test [8] (read-out: GI); 29% in [10]. Moreover, the inhibition of growth at 10 µM in [11] (read-out: GI) was 12%; in [13] (read-out: GI) it was 8%; in test [14], 41%; in [26], 1%; in [16] (read-out: GI) it was 10%; in test [19], 8%. In addition, the inhibition of growth at 10 µM in test [27] came out at 2%; in test [21] (read-out: GI), 9%; in [22] it was 20%; in [23], 25%; in [24] (read-out: GI), 5%; in [25], 4%. For the same compound, the “growth inhibition (GI)” value in test [2], in [5], in test [12], in test [17] and in test [18] was “inactive” each time.
